Data on 3 molecules can be found in US6048715A, “Two-phase partition affinity separation system and affinity separated cell-containing composition” (priority 1996, dated 2000).

This test concerns the target T1, CBDN1 (Cellulomonas fimi, UniProt P14090).
T1 construct: Cex leader peptide (secretion signal of the vector) (N); made in house; purified from the culture supernatant
T1 sequence (P14090 33-184): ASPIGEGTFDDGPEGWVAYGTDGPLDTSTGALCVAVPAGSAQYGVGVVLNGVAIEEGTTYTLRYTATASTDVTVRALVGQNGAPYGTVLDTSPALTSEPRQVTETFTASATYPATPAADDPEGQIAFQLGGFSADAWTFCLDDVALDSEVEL
Put plainly: Isothermal titration microcalorimetry of oligosaccharide binding. The conditions noted are these: N1 binding, 35° C., Table 8. An excerpt: The PBP can be obtained following isolation and purification of the enzyme by clipping off the PBP from the remainder of the enzyme. For use in the phase separation system, the PBP is screened for binding to soluble phase-forming oligosaccharides. While any of a number of methods can be used for screening, including NMR alone, NMA/calorimetry, affinity electrophoresis alone, affinity electrophoresis/competition assay, and binding isotherms. Binding equilibrium studies using isothermal titration microcalorimetry (ITC) are preferred. The advantage of isothermal titration microcalorimetry […] in binding equilibrium studies derives from the fact that binding isotherms are defined by the experiment in terms of heats of reaction; as such, they allow a direct estimation of enthalpy (and entropy (changes in addition to the association constant. Thus, a single microcalorimetric titration provides a complete characterization of the binding energetics along with the binding isotherm. (Haynes et al., J. Colloid Interface Sci., (1994) 169:313; Colloids & Surfaces, (1994) 2:517.
Microcalorimetry was used to measure binding thermodynamics for CBDN1 to a wide range of water-soluble oligosaccharides with the aim of identifying a set of suitable ligands for the affinity partition system. […] For both oligosaccharides,CPDN1 binding is as tight or even tighter than nearly all PEG-based affinity ligands (e.g., Cibacron blue-PEG, Procion red-PEG, dinitrophenyl-PEG, diacetic acid-PEG) currently in use in affinity partition systems.
(In ITC the heat of successive injections is recorded.)
Turning to `OC[C@H]1O[C@@H](O[C@H]2[C@H](O)[C@@H](O)[C@H](O[C@H]3[C@H](O)[C@@H](O)[C@H](O[C@H]4[C@H](O)[C@@H](O)[C@H](O[C@H]5[C@H](O)[C@@H](O)[C@H](O[C@H]6[C@H](O)[C@@H](O)C(O)O[C@@H]6CO)O[C@@H]5CO)O[C@@H]4CO)O[C@@H]3CO)O[C@@H]2CO)[C@H](O)[C@@H](O)[C@@H]1O` (stereo partly drawn) [Cellohexaose], the “-TΔS^o” value is reported as 0.79 kcal/mol and the “ΔH^o” value was -6.9 ± 0.2 kcal/mol.

Take `OC[C@H]1O[C@@H](O[C@H]2[C@H](O)[C@@H](O)[C@H](O[C@H]3[C@H](O)[C@@H](O)[C@H](O[C@H]4[C@H](O)[C@@H](O)[C@H](O[C@H]5[C@H](O)[C@@H](O)C(O)O[C@@H]5CO)O[C@@H]4CO)O[C@@H]3CO)O[C@@H]2CO)[C@H](O)[C@@H](O)[C@@H]1O` (stereo partly drawn) [Cellopentaose]: the “-TΔS^o” value came out at 0.86 kcal/mol and the “ΔH^o” value is -6.8 ± 0.2 kcal/mol.

In the case of `OC[C@H]1O[C@@H](O[C@H]2[C@H](O)[C@@H](O)[C@H](O[C@H]3[C@H](O)[C@@H](O)[C@H](O[C@H]4[C@H](O)[C@@H](O)C(O)O[C@@H]4CO)O[C@@H]3CO)O[C@@H]2CO)[C@H](O)[C@@H](O)[C@@H]1O` (stereo partly drawn) [Cellotetraose], the “-TΔS^o” value amounted to 1.4 ± 0.1 kcal/mol and the “ΔH^o” value was -6.4 ± 0.2 kcal/mol.
